In PubChem BioAssay (NCI):
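Growth conditions: 96-well plates. Treatment: test compound, 48 hours, 5 concentrations. Analysis: linear interpolation between bracketing concentrations; unreached endpoints set to highest concentration. TGI marks complete inhibition of growth.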

Columns and labels:
Test in all cases: NCI-60 cell line screen, 48 h
[1] = system: A498 renal
[2] = system: A549 NSCLC
[3] = system: ACHN renal
[4] = system: BT-549 breast
[5] = system: CAKI-1 renal
[6] = system: CCRF-CEM leukemia
[7] = system: COLO 205 colon
[8] = system: DU-145 prostate
[9] = system: EKVX NSCLC
[10] = system: HCC-2998 colon
[11] = system: HCT-116 colon
[12] = system: HCT-15 colon
[13] = system: HL-60(TB) leukemia
[14] = system: HOP-62 NSCLC
[15] = system: HOP-92 NSCLC
[16] = system: HS 578T breast
[17] = system: HT29 colon
[18] = system: IGROV1 ovarian
[19] = system: K-562 leukemia
[20] = system: KM12 colon
[21] = system: LOX IMVI melanoma
[22] = system: M14 melanoma
[23] = system: MALME-3M melanoma
[24] = system: MCF7 breast
[25] = system: MDA-MB-231 breast
[26] = system: MDA-MB-435
[27] = system: MDA-N
[28] = system: MOLT-4 leukemia
[29] = system: NCI-H23 lung
[30] = system: NCI-H460 lung
[31] = system: NCI-H522 lung
[32] = system: NCI/ADR-RES ovarian
[33] = system: OVCAR-3 ovarian
[34] = system: OVCAR-4 ovarian
[35] = system: OVCAR-5 ovarian
[36] = system: OVCAR-8 ovarian
[37] = system: PC-3 prostate
[38] = system: RPMI-8226 leukemia
[39] = system: RXF 393 renal
[40] = system: SF-268 CNS
[41] = system: SF-295 CNS
[42] = system: SF-539 CNS
[43] = system: SK-MEL-2 melanoma
[44] = system: SK-MEL-28 melanoma
[45] = system: SK-MEL-5 melanoma
[46] = system: SK-OV-3 ovarian
[47] = system: SN12C renal
[48] = system: SNB-19 CNS
[49] = system: SW-620 colon
[50] = system: T-47D breast
[51] = system: TK-10 renal
[52] = system: U251 CNS
[53] = system: UACC-257 melanoma
[54] = system: UACC-62 melanoma
[55] = system: UO-31 renal

COC(=O)C1=C(C(=O)OC)SC2(S1)C1=C(CCC1)SC(C(=O)OC)=C2C(=O)OC
TGI [1]: 22.7 µM
TGI [2]: 32.8 µM
TGI [3]: 24.8 µM
TGI [4]: 31.3 µM
TGI [5]: 18.1 µM
TGI [6]: 12.5 µM
TGI [7]: 42 µM
TGI [8]: 15.8 µM
TGI [9]: 29 µM
TGI [10]: 33 µM
TGI [11]: 3.65 µM
TGI [12]: 21.5 µM
TGI [13]: > 100 µM
TGI [14]: 26.2 µM
TGI [15]: 22.5 µM
TGI [16]: 35.4 µM
TGI [17]: 18.5 µM
TGI [18]: 26.6 µM
TGI [19]: > 100 µM
TGI [20]: 32.1 µM
TGI [21]: 15.3 µM
TGI [22]: 35.3 µM
TGI [23]: 36 µM
TGI [24]: 22.4 µM
TGI [25]: 33.4 µM
TGI [26]: 26 µM
TGI [27]: 29.6 µM
TGI [28]: 16.8 µM
TGI [29]: 37 µM
TGI [30]: 20.2 µM
TGI [31]: 9.08 µM
TGI [32]: 39 µM
TGI [33]: 24.6 µM
TGI [34]: 28.9 µM
TGI [35]: 34.6 µM
TGI [36]: 24.6 µM
TGI [37]: 23.3 µM
TGI [38]: > 100 µM
TGI [39]: 16.7 µM
TGI [40]: 34.4 µM
TGI [41]: 28.9 µM
TGI [42]: 4.32 µM
TGI [43]: 35.8 µM
TGI [44]: 25.3 µM
TGI [45]: 36 µM
TGI [46]: 30.5 µM
TGI [47]: 23.4 µM
TGI [48]: 36.8 µM
TGI [49]: 37.5 µM
TGI [50]: 46.3 µM
TGI [51]: 29.1 µM
TGI [52]: 29.2 µM
TGI [53]: 31.8 µM
TGI [54]: 34 µM
TGI [55]: 22.7 µM
